Results on 7 compounds are retold here after patent publication US10221139B2, “Inhibitors of histone demethylases” (Gilead Sciences, Inc., priority 2012, dated 2019).

What all share (format): biochemical
One test has as its target T1, JMJD1B (KDM3B) (Homo sapiens, UniProt Q7LBC6).
T1 construct: 842-1761; host or cells: Bac (baculovirus)
T1 sequence (Q7LBC6 842-1761): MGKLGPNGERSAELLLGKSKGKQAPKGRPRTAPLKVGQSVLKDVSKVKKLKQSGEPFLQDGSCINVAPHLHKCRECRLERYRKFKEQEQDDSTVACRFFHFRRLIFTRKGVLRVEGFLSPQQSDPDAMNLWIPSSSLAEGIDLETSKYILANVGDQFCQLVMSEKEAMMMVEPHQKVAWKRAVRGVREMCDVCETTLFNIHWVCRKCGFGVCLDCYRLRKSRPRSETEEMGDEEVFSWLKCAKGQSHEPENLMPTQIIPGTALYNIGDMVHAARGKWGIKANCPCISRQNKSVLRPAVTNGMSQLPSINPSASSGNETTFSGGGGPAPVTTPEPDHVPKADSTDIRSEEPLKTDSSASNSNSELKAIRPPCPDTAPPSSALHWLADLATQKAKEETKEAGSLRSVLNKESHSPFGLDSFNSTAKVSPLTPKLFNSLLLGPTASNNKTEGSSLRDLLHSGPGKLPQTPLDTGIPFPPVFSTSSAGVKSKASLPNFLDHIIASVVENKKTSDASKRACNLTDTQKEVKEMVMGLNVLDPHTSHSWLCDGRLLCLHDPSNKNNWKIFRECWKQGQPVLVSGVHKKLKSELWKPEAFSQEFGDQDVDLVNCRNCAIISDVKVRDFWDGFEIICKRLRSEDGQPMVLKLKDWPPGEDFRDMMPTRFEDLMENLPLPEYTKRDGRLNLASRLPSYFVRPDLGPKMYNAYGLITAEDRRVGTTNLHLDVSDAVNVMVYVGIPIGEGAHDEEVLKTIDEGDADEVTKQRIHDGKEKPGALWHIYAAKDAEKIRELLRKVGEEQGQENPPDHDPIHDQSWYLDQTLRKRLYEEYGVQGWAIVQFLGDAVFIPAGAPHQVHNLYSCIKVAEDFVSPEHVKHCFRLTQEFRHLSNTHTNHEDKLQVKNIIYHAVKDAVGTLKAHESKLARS
Briefly: Histone lysine demethylase AlphaLISA assay, JMJD1B. The settings on record: substrate BK9M2. As for the experimental part: (§1) Example 2: Histone Lysine Demethylase AlphaLISA Assays for IC50 Value Determination
(§2) Assays are performed analogously to the protocol described by Perkin Elmer (Roy et al. Perkin Elmer Technical Note: AlphaLISA #12, April 2011).
(§3) Enzymes are dissolved in enzyme buffer and incubated for 10 min before 5 μL is added to 5 μL 3% DMSO solutions of compounds in enzyme buffer. Incubated for another 10 minutes, before 5 μL substrate solution is added and the reaction mixture is incubated at room temperature for the given period. 10 μL acceptor beads, suspended at given dilutions in Epigenetic Buffer (Perkin Elmer AL008) from stock, are added and the suspension is incubated 60 minutes in the dark at room temperature, before 10 μL suspension (at the given dilutions in Epigenetic Buffer) of streptavidin donor beads (Perkin Elmer 6760002) in Epigenetic Buffer is added. After incubation at room temperature in the dark the plates are read. Reaction conditions are seen in Table 2b.

The target in another test is T2, JMJD2A (KDM4A) (Homo sapiens, UniProt O75164).
T2 construct: 1-350; purchased BPS, Bioscience, US; host or cells: E. coli
T2 sequence (O75164 1-350): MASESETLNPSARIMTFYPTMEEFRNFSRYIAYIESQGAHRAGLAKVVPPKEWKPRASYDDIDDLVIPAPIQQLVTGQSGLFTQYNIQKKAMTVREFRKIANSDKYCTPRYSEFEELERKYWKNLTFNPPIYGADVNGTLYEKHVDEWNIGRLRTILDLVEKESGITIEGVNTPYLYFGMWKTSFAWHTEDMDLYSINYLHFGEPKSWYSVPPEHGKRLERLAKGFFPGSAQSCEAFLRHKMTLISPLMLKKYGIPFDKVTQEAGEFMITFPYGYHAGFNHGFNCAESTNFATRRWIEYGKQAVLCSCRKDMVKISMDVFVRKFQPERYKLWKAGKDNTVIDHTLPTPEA
Briefly: Histone lysine demethylase AlphaLISA assay, JMJD2A. The settings on record: substrate BK9M3. As to the method: as §1, §2, §3
For orientation: In Alpha technology, singlet oxygen from a donor bead excites a nearby acceptor bead.

Another test addresses T3, JMJD2B (KDM4B) (Homo sapiens, UniProt O94953).
T3 construct: 2-500; purchased BPS; host or cells: Bac (baculovirus)
T3 sequence (O94953 2-500): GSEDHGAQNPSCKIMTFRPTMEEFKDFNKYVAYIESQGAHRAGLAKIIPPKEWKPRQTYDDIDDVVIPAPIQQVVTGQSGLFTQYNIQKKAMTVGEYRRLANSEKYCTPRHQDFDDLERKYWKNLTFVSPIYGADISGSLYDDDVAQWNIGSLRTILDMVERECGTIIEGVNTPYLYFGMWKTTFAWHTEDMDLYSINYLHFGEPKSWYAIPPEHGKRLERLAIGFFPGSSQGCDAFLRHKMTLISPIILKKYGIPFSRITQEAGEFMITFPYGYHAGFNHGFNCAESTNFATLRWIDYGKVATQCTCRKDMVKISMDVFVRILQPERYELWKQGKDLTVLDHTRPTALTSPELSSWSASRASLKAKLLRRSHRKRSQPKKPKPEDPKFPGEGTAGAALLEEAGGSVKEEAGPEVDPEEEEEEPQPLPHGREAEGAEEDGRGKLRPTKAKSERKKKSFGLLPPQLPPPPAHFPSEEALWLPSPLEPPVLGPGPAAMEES
Briefly: Histone lysine demethylase AlphaLISA assay, JMJD2B. The conditions noted are these: substrate BK9M3, read-out: JMUD2B IC50. As for the experimental part: as §1, §2, §3

For the next test, the target named is T4, JMJD3 (KDM6B) (Homo sapiens, UniProt O15054).
T4 construct: 1043-end; purchased BPS; host or cells: Bac (baculovirus)
Briefly: Histone lysine demethylase AlphaLISA assay, JMJD3. The conditions noted are these: substrate BK27M3. As for the experimental part:
as §1, §2, §3

In the next test the target is T5, PHF8 (KDM7) (Homo sapiens, UniProt Q9UPP1).
T5 construct: KDM7 (PHF8); BRIC; 1-1322; Bac
Briefly: Histone lysine demethylase AlphaLISA assay, PHF8. The conditions noted are these: substrate BK9M2. As to the method: as §1, §2, §3

T4 sequence (O15054 1043-1682 isoform O15054-1 limits assumed): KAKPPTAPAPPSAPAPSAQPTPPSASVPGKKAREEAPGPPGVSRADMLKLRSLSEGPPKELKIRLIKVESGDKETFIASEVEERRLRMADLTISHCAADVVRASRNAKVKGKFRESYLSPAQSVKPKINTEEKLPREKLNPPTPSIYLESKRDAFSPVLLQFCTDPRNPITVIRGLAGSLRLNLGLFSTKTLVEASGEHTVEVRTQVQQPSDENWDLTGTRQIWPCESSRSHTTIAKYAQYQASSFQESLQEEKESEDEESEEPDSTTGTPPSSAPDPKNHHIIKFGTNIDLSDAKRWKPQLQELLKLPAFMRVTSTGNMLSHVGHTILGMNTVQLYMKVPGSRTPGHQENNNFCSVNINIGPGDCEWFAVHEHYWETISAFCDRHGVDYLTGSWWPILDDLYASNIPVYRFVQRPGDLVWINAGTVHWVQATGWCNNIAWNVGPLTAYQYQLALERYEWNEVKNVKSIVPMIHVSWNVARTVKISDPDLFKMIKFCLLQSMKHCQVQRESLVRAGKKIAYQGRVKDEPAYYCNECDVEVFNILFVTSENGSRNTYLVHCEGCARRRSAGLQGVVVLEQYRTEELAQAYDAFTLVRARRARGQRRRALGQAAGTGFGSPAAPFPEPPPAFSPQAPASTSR
T5 sequence (Q9UPP1 37-477 limits assumed): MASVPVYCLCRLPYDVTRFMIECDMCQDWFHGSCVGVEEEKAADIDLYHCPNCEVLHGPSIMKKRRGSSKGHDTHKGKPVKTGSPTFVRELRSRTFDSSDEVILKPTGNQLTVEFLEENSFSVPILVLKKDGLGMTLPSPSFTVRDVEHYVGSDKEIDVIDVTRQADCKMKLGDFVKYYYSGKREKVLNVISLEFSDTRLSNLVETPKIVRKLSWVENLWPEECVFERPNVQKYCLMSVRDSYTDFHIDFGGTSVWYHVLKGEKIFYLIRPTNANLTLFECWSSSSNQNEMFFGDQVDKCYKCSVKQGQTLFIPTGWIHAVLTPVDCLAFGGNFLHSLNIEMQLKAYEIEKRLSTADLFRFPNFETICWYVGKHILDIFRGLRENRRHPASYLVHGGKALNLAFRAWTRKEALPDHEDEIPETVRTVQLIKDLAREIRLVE

With “2-({[(1R)-2-hydroxy-1-{methyl[3-(1-methyl-1H-imidazol-2-yl)propyl]carbamoyl}ethyl]amino}methyl)pyridine-4-carboxylic acid [#37]”, the IC50 on JMJD1B (KDM3B) is no less than 1000 nM; against JMJD2A (KDM4A), less than 100 nM; at JMJD2B (KDM4B), less than 100 nM; at JMJD3 (KDM6B), no less than 1000 nM; against PHF8 (KDM7) it was no less than 1000 nM.
On to `O=C(O)c1ccnc(CNCC(=O)N2CCCC2)c1` [#13, 2-({[2-oxo-2-(pyrrolidin-1-yl)ethyl]amino}methyl)pyridine-4-carboxylic acid], for which the IC50 at JMJD1B (KDM3B) is no less than 1000 nM; on JMJD2A (KDM4A), less than 100 nM; at JMJD2B (KDM4B), less than 100 nM; against JMJD3 (KDM6B) it was no less than 1000 nM; at PHF8 (KDM7), 100 to 1000 nM.
Regarding `CCCCN(C)C(=O)CNCc1cc(C(=O)O)ccn1` [#14, 2-[({[butyl(methyl)carbamoyl]methyl}amino)methyl]pyridine-4-carboxylic acid], the IC50 on JMJD1B (KDM3B) was no less than 1000 nM; at JMJD2B (KDM4B) it was less than 100 nM; at JMJD3 (KDM6B) it was no less than 1000 nM; against PHF8 (KDM7), 100 to 1000 nM.
On to `COc1ccccc1CN1CCC(NC(=O)CNCc2cc(C(=O)O)ccn2)CC1` [#29, 2-({[({1-[(2-methoxyphenyl)methyl]piperidin-4-yl}carbamoyl)methyl]amino}methyl)pyridine-4-carboxylic acid], for which the IC50 at JMJD1B (KDM3B) was 100 to 1000 nM; against JMJD2A (KDM4A) it was less than 100 nM; at JMJD2B (KDM4B), less than 100 nM; against PHF8 (KDM7), less than 100 nM.
In the case of `CCCCN1CCCC1CCNCc1cc(C(=O)O)ccn1` (stereo not drawn) [#34, 2-({[2-(1-butylpyrrolidin-2-yl)ethyl]amino}methyl)pyridine-4-carboxylic acid], the IC50 was no less than 1000 nM against JMJD1B (KDM3B); less than 100 nM at JMJD2A (KDM4A); less than 100 nM on JMJD2B (KDM4B); no less than 1000 nM at JMJD3 (KDM6B); no less than 1000 nM on PHF8 (KDM7).
With `CC(C)=CCCC(C)CCN1CCC(NC(=O)CNCc2cc(C(=O)O)ccn2)C1` (stereo not drawn) [#35, 2-{[({[1-(3,7-dimethyloct-6-en-1-yl)pyrrolidin-3-yl]carbamoyl}methyl)amino]methyl}pyridine-4-carboxylic acid], the half-inhibitory concentration (IC50) on JMJD1B (KDM3B) is no less than 1000 nM; on JMJD2A (KDM4A), less than 100 nM; at JMJD2B (KDM4B) it was less than 100 nM; against JMJD3 (KDM6B) it was 100 to 1000 nM; on PHF8 (KDM7), 100 to 1000 nM.
As for `CCN(CCN(C)C)C(=O)CNCc1cc(C(=O)O)ccn1` [#49, 2-{[({[2-(dimethylamino)ethyl](ethyl)carbamoyl}methyl)amino]methyl}pyridine-4-carboxylic acid], the IC50 is no less than 1000 nM at JMJD1B (KDM3B); less than 100 nM against JMJD2A (KDM4A); less than 100 nM at JMJD2B (KDM4B); no less than 1000 nM at JMJD3 (KDM6B); 100 to 1000 nM on PHF8 (KDM7).

Usually IC50 stands for the concentration that inhibits the measured activity by half.
